Measured values as given in the NIST ThermoML archive (doi:10.1016/j.fluid.2010.10.028).

Experiment: xn = mol fraction of the nth substance listed
Conditions: Liquid, Vibrating tube method

CC(C)=O [acetone] + CCCCCCC
Conditions | mass density [kg/m3]
407.24 K, 19810 kPa, x1 = 0.7024 | 645.07
407.24 K, 34830 kPa, x1 = 0.7024 | 668.11
407.24 K, 39830 kPa, x1 = 0.7024 | 674.52
407.24 K, 44820 kPa, x1 = 0.7024 | 680.48
407.24 K, 49810 kPa, x1 = 0.7024 | 686.06
407.24 K, 54890 kPa, x1 = 0.7024 | 691.39
407.24 K, 59890 kPa, x1 = 0.7024 | 696.35
407.24 K, 64860 kPa, x1 = 0.7024 | 701.02
407.24 K, 69850 kPa, x1 = 0.7024 | 705.48
407.24 K, 74830 kPa, x1 = 0.7024 | 709.73
407.24 K, 79820 kPa, x1 = 0.7024 | 713.81
407.24 K, 84800 kPa, x1 = 0.7024 | 717.74
407.24 K, 94760 kPa, x1 = 0.7024 | 725.11
407.24 K, 99830 kPa, x1 = 0.7024 | 728.64
407.24 K, 119800 kPa, x1 = 0.7024 | 741.56
407.25 K, 89790 kPa, x1 = 0.7024 | 721.47
407.25 K, 104820 kPa, x1 = 0.7024 | 732.04
407.25 K, 109820 kPa, x1 = 0.7024 | 735.31
407.25 K, 114820 kPa, x1 = 0.7024 | 738.47
407.25 K, 124810 kPa, x1 = 0.7024 | 744.56
407.25 K, 129820 kPa, x1 = 0.7024 | 747.45
417.16 K, 1870 kPa, x1 = 0.611 | 581.34
417.16 K, 4870 kPa, x1 = 0.611 | 591.69
417.16 K, 9860 kPa, x1 = 0.611 | 605.85
417.16 K, 14870 kPa, x1 = 0.611 | 617.52
417.16 K, 19870 kPa, x1 = 0.611 | 627.57
417.16 K, 29860 kPa, x1 = 0.611 | 644.4
417.16 K, 34860 kPa, x1 = 0.611 | 651.63
417.16 K, 44870 kPa, x1 = 0.611 | 664.46
417.16 K, 49860 kPa, x1 = 0.611 | 670.17
417.16 K, 54850 kPa, x1 = 0.611 | 675.54
417.16 K, 59830 kPa, x1 = 0.611 | 680.59
417.16 K, 64940 kPa, x1 = 0.611 | 685.5
417.16 K, 69910 kPa, x1 = 0.611 | 690.02
417.16 K, 74900 kPa, x1 = 0.611 | 694.35
417.16 K, 79880 kPa, x1 = 0.611 | 698.49
417.16 K, 84870 kPa, x1 = 0.611 | 702.46
417.16 K, 89850 kPa, x1 = 0.611 | 706.26
417.16 K, 94840 kPa, x1 = 0.611 | 709.93
417.16 K, 99820 kPa, x1 = 0.611 | 713.43
417.16 K, 119850 kPa, x1 = 0.611 | 726.48
417.17 K, 1870 kPa, x1 = 0.492 | 575.55
417.17 K, 4860 kPa, x1 = 0.492 | 585.56
417.17 K, 9850 kPa, x1 = 0.492 | 599.32
417.17 K, 24840 kPa, x1 = 0.611 | 636.42
417.17 K, 39880 kPa, x1 = 0.611 | 658.3
417.17 K, 44850 kPa, x1 = 0.492 | 656.44
417.17 K, 49850 kPa, x1 = 0.492 | 662.04
417.17 K, 54840 kPa, x1 = 0.492 | 667.29
417.17 K, 59840 kPa, x1 = 0.492 | 672.26
417.17 K, 104790 kPa, x1 = 0.611 | 716.82
417.17 K, 104800 kPa, x1 = 0.492 | 707.7
417.17 K, 109770 kPa, x1 = 0.492 | 710.89
417.17 K, 109780 kPa, x1 = 0.611 | 720.13
417.17 K, 114870 kPa, x1 = 0.611 | 723.4
417.17 K, 124850 kPa, x1 = 0.611 | 729.46
417.17 K, 129850 kPa, x1 = 0.611 | 732.41
417.18 K, 1840 kPa, x1 = 0.801 | 597.33
417.18 K, 4870 kPa, x1 = 0.801 | 607.96
417.18 K, 14870 kPa, x1 = 0.492 | 610.71
417.18 K, 19870 kPa, x1 = 0.492 | 620.5
417.18 K, 24830 kPa, x1 = 0.492 | 629.07
417.18 K, 29860 kPa, x1 = 0.492 | 636.88
417.18 K, 34860 kPa, x1 = 0.492 | 643.95
417.18 K, 39860 kPa, x1 = 0.492 | 650.43
417.18 K, 64820 kPa, x1 = 0.492 | 676.9
417.18 K, 69910 kPa, x1 = 0.492 | 681.45
417.18 K, 74890 kPa, x1 = 0.492 | 685.69
417.18 K, 79880 kPa, x1 = 0.492 | 689.75
417.18 K, 84870 kPa, x1 = 0.492 | 693.62
417.18 K, 89860 kPa, x1 = 0.492 | 697.34
417.18 K, 94830 kPa, x1 = 0.492 | 700.9
417.18 K, 99820 kPa, x1 = 0.492 | 704.36
417.18 K, 114850 kPa, x1 = 0.492 | 714.07
417.18 K, 119830 kPa, x1 = 0.492 | 717.08
417.18 K, 124850 kPa, x1 = 0.492 | 720.01
417.18 K, 129840 kPa, x1 = 0.492 | 722.86
417.19 K, 2070 kPa, x1 = 0.4 | 611.4
417.19 K, 2070 kPa, x1 = 0.8992 | 611.4
417.19 K, 5030 kPa, x1 = 0.4 | 621.55
417.19 K, 5030 kPa, x1 = 0.8992 | 621.55
417.19 K, 9870 kPa, x1 = 0.801 | 622.44
417.19 K, 10010 kPa, x1 = 0.4 | 635.78
417.19 K, 10010 kPa, x1 = 0.8992 | 635.78
417.19 K, 14860 kPa, x1 = 0.801 | 634.41
417.19 K, 15000 kPa, x1 = 0.4 | 647.66
417.19 K, 15000 kPa, x1 = 0.8992 | 647.66
417.19 K, 19860 kPa, x1 = 0.801 | 644.76
417.19 K, 19970 kPa, x1 = 0.4 | 657.99
417.19 K, 19970 kPa, x1 = 0.8992 | 657.99
417.19 K, 24870 kPa, x1 = 0.801 | 653.93
